Measured values from the supplement of paper PMC11061612.

Columns and labels:
[1] = test system: OCUB-M (Breast Carcinoma); assay: Bliss excess, mean over the matrix (fraction); higher = more synergy
How it was run: (§1)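 Cell lines grown in DMEM/F12 or RPMI with 10% FBS were plated in 1536-well plates and held 24 hours at 37°C, 5% CO2 before 72 hours of exposure to two-drug dose matrices, with DMSO typically at 0.2%. CellTiter-Glo 2.0 luminescence gave viability, which was converted to inhibition. Vehicle wells were set to 0 and blank wells to 1. Combination Emax is the second-highest inhibition in the matrix, and Bliss excess is the observed combination effect minus the expected EA + EB − EA·EB, where EA and EB are the single-agent effects.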

[2] = test system: SCC-9 (Oral Cavity Carcinoma); assay: as above
How it was run: as §1

[3] = test system: OCUM-1 (Gastric Carcinoma); assay: as above
How it was run: as §1

[4] = test system: EW-3 (Ewing's Sarcoma); assay: as above
How it was run: as §1

[5] = test system: H-EMC-SS (Chondrosarcoma); assay: as above
How it was run: as §1

[6] = test system: GI-1 (Glioblastoma); assay: as above
How it was run: as §1

[7] = test system: LC4-1 (B-Lymphoblastic Leukemia); assay: as above
How it was run: as §1

[8] = test system: VMRC-LCD (Lung Adenocarcinoma); assay: as above
How it was run: as §1

[9] = test system: HSC-2 (Oral Cavity Carcinoma); assay: as above
How it was run: as §1

[10] = test system: TGBC11TKB (Gastric Carcinoma); assay: as above
How it was run: as §1

[11] = test system: NB7 (Neuroblastoma); assay: as above
How it was run: as §1

[12] = test system: KINGS-1 (Low Grade Glioma); assay: as above
How it was run: as §1

[13] = test system: JHH-7 (Hepatocellular Carcinoma); assay: as above
How it was run: as §1

[14] = test system: SNU-C1 (Colorectal Carcinoma); assay: as above
How it was run: as §1

[15] = test system: NCI-N87 (Gastric Carcinoma); assay: as above
How it was run: as §1

[16] = test system: OCUB-M (Breast Carcinoma); assay: combination Emax (second highest fraction inhibited in the dose matrix, 72 h); higher = more inhibition; extreme values may be limits of the assay
How it was run: as §1

[17] = test system: SCC-9 (Oral Cavity Carcinoma); assay: as above
How it was run: as §1

[18] = test system: OCUM-1 (Gastric Carcinoma); assay: as above
How it was run: as §1

[19] = test system: EW-3 (Ewing's Sarcoma); assay: as above
How it was run: as §1

[20] = test system: H-EMC-SS (Chondrosarcoma); assay: as above
How it was run: as §1

[21] = test system: GI-1 (Glioblastoma); assay: as above
How it was run: as §1

[22] = test system: LC4-1 (B-Lymphoblastic Leukemia); assay: as above
How it was run: as §1

[23] = test system: VMRC-LCD (Lung Adenocarcinoma); assay: as above
How it was run: as §1

[24] = test system: HSC-2 (Oral Cavity Carcinoma); assay: as above
How it was run: as §1

[25] = test system: TGBC11TKB (Gastric Carcinoma); assay: as above
How it was run: as §1

[26] = test system: NB7 (Neuroblastoma); assay: as above
How it was run: as §1

[27] = test system: KINGS-1 (Low Grade Glioma); assay: as above
How it was run: as §1

[28] = test system: JHH-7 (Hepatocellular Carcinoma); assay: as above
How it was run: as §1

[29] = test system: SNU-C1 (Colorectal Carcinoma); assay: as above
How it was run: as §1

[30] = test system: NCI-N87 (Gastric Carcinoma); assay: as above
How it was run: as §1
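For Bliss excess, mean over the matrix in this document: after 72 h of two-drug dosing.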

| Structure (SMILES) | Bliss excess [1] | Bliss excess [2] | Bliss excess [3] | Bliss excess [4] | Bliss excess [5] | Bliss excess [6] | Bliss excess [7] | Bliss excess [8] | Bliss excess [9] | Bliss excess [10] | Bliss excess [11] | Bliss excess [12] | Bliss excess [13] | Bliss excess [14] | Bliss excess [15] | combination Emax [16] | combination Emax [17] | combination Emax [18] | combination Emax [19] | combination Emax [20] | combination Emax [21] | combination Emax [22] | combination Emax [23] | combination Emax [24] | combination Emax [25] | combination Emax [26] | combination Emax [27] | combination Emax [28] | combination Emax [29] | combination Emax [30] |
| --- | --- | --- | --- | --- | --- | --- | --- | --- | --- | --- | --- | --- | --- | --- | --- | --- | --- | --- | --- | --- | --- | --- | --- | --- | --- | --- | --- | --- | --- | --- |
| C[C@@H]1COCCN1c1cc(C2([S@](C)(=N)=O)CC2)nc(-c2ccnc3[nH]ccc23)n1 [AZD6738] + Nc1ccn([C@@H]2O[C@H](CO)[C@@H](O)C2(F)F)c(=O)n1 [Gemcitabine] (first compound max 10 µM, 7x7, partner max 0.3 µM) | 0.028 | 0.024 | -0.0316 | -0.0176 | 0.006 | 0.0797 | 0.0935 | 0.0526 | 0.0604 | -0.0137 | 0.0831 | -0.023 | 0.085 | -0.0261 | 0.0265 | 0.947 | 0.47 | 0.727 | 0.939 | 0.545 | 0.933 | 0.988 | 0.74 | 0.971 | 0.936 | 0.903 | 0.388 | 0.722 | 0.721 | 0.738 |
| C=CCn1c(=O)c2cnc(Nc3ccc(N4CCN(C)CC4)cc3)nc2n1-c1cccc(C(C)(C)O)n1 [AZD1775] + CCc1c2c(nc3ccc(O)cc13)-c1cc3c(c(=O)n1C2)COC(=O)[C@]3(O)CC [SN-38] (first compound max 1 µM, partner max 0.3 µM) | 0.0926 | -0.0365 | -0.0758 | -0.135 | -0.0137 | -0.0412 | -0.0519 | -0.126 | -0.0298 | -0.0338 | 0.0564 | -0.0275 | 0.0117 | -0.0837 | -0.0855 | 0.931 | 0.557 | 0.65 | 0.872 | 0.561 | 0.988 | 0.934 | 0.591 | 0.952 | 0.914 | 0.97 | 0.495 | 0.43 | 0.646 | 0.8 |
| O=C(c1cc(Cc2n[nH]c(=O)c3ccccc23)ccc1F)N1CCN(C(=O)C2CC2)CC1 [Olaparib] + Cc1c2c(nn1C)CSCc1cc(n(C)n1)CSc1cc(c3ccccc3c1)OCCCc1c(C(=O)O)n(C)c3c-2c(Cl)ccc13 [AZD5991] (first compound max 10 µM, 7x7, partner max 1 µM) | -0.0142 | -0.0478 | -0.0497 | -0.0215 | -0.0401 | 0.0065 | -0.0181 | -0.0349 | -0.0082 | 0.0015 | -0.0154 | -0.0514 | -0.0457 | -0.0155 | -0.0285 | 0.924 | 0.154 | 0.0756 | 0.869 | 0.129 | 0.51 | 0.955 | 0.111 | 0.88 | 0.509 | 0.595 | 0.0927 | 0.0758 | 0.362 | 0.203 |
| CN(CCO)CC[C@H](CSc1ccccc1)Nc1ccc(S(=O)(=O)NC(=O)c2ccc(N3CCC([C@@H](O)c4ccccc4-c4ccc(Cl)cc4)CC3)cc2)cc1S(=O)(=O)C(F)(F)F [AZD4320] + CC(=O)O[C@H]1C(=O)[C@@]2(C)[C@H]([C@H](OC(=O)c3ccccc3)[C@]3(O)C[C@H](OC(=O)[C@H](O)[C@@H](NC(=O)c4ccccc4)c4ccccc4)C(C)=C1C3(C)C)[C@]1(OC(C)=O)CO[C@@H]1C[C@@H]2O [Paclitaxel] (first compound max 1 µM, 7x7, partner max 3 µM) | 0.0811 | 0.109 | 0.0074 | 0.0269 | 0.0785 | 0.0374 | 0.0047 | 0.0035 | 0.0087 | 0.0373 | 0.131 | 0.18 | 0.144 | 0.179 | 0.182 | 1 | 0.745 | 0.955 | 0.961 | 0.672 | 1 | 1 | 0.918 | 1 | 0.994 | 0.94 | 0.966 | 0.951 | 0.829 | 0.921 |
| CS(=O)(=O)CCNCc1ccc(-c2ccc3ncnc(Nc4ccc(OCc5cccc(F)c5)c(Cl)c4)c3c2)o1 [Lapatinib] + Cn1cnc2c(F)c(Nc3ccc(Br)cc3Cl)c(C(=O)NOCCO)cc21 [Selumetinib] (first compound max 10 µM, 7x7, partner max 10 µM) | -0.0507 | 0.0063 | -0.0148 | -0.0017 | -0.0086 | 0.0054 | 0.0675 | -0.0369 | -0.0044 | 0.106 | -0.0408 | -0.0191 | -0.0408 | -0.0196 | 0.0451 | 0.551 | 0.988 | 0.95 | 0.405 | 0.317 | 0.368 | 0.954 | 0.207 | 0.782 | 0.527 | 0.119 | 0.337 | 0.344 | 0.785 | 0.991 |
| CN(CCO)CC[C@H](CSc1ccccc1)Nc1ccc(S(=O)(=O)NC(=O)c2ccc(N3CCC([C@@H](O)c4ccccc4-c4ccc(Cl)cc4)CC3)cc2)cc1S(=O)(=O)C(F)(F)F [AZD4320] + Nc1ccn([C@@H]2O[C@H](CO)[C@@H](O)C2(F)F)c(=O)n1 [Gemcitabine] (first compound max 1 µM, 7x7, partner max 0.3 µM) | 0.0471 | -0.0247 | 0.0262 | -0.0522 | 0.0342 | 0.112 | 0.0156 | -0.0095 | 0.0613 | 0.0225 | -0.0153 | -0.0068 | -0.033 | -0.0482 | -0.0058 | 0.812 | 0.539 | 0.905 | 0.91 | 0.832 | 0.936 | 1 | 0.288 | 1 | 0.882 | 0.556 | 0.502 | 0.284 | 0.533 | 0.822 |
| CC1(C)CCC(CN2CCN(c3ccc(C(=O)NS(=O)(=O)c4ccc(NCC5CCOCC5)c([N+](=O)[O-])c4)c(Oc4cnc5[nH]ccc5c4)c3)CC2)=C(c2ccc(Cl)cc2)C1 [Venetoclax] + CS(=O)(=O)CCNCc1ccc(-c2ccc3ncnc(Nc4ccc(OCc5cccc(F)c5)c(Cl)c4)c3c2)o1 [Lapatinib] (first compound max 1 µM, 7x7, partner max 10 µM) | -0.0181 | -0.036 | -0.0196 | 0.0862 | -0.0278 | 0.0283 | 0.0233 | -0.0139 | -0.0145 | 0.0197 | -0.0348 | -0.0466 | -0.0408 | -0.0495 | -0.0029 | 0.518 | 0.955 | 0.178 | 0.55 | 0.188 | 0.284 | 1 | 0.256 | 0.8 | 0.325 | 0.117 | 0.208 | 0.335 | 0.0031 | 0.931 |
| C[C@@H](Nc1cc(F)cc(F)c1)c1cc(C(=O)N(C)C)cc2c(=O)cc(N3CCOCC3)oc12 [AZD8186] + CC(=O)c1c(C)c2cnc(Nc3ccc(N4CCNCC4)cn3)nc2n(C2CCCC2)c1=O [Palbociclib] (first compound max 10 µM, 7x7, partner max 10 µM) | -0.0466 | 0.0322 | 0.0111 | 0.0752 | -0.0127 | 0.0438 | 0.202 | 0.006 | 0.0014 | 0.0002 | 0.211 | 0.0318 | -0.0086 | 0.0065 | 0.0255 | 0.252 | 0.382 | 0.36 | 0.392 | 0.474 | 0.454 | 0.641 | 0.165 | 0.533 | 0.178 | 0.932 | 0.398 | 0.216 | 0.37 | 0.656 |
| Cc1nc(-c2cn3c(n2)-c2ccc(-c4cnn(C(C)(C)C(N)=O)c4)cc2OCC3)n(C(C)C)n1 [Taselisib] + O=C(Nc1ccc2[nH]nc(-c3ccncc3)c2c1)[C@@H]1CCN(CC(=O)N2CCN(c3ccc(-c4ncccn4)cc3)CC2)C1 [SCH772984] (first compound max 10 µM, 7x7, partner max 5 µM) | 0.0341 | 0.151 | 0.016 | 0.0884 | 0.156 | 0.111 | 0.0661 | -0.0342 | 0.0341 | 0.177 | -0.0014 | 0.139 | 0.0389 | 0.108 | 0.0215 | 1 | 0.959 | 0.983 | 0.608 | 0.927 | 0.732 | 0.588 | 0.149 | 0.994 | 0.765 | 0.264 | 0.749 | 0.526 | 0.932 | 0.947 |
